Data taken from PMC12377202, “Design, synthesis, and cytotoxic evaluation of quinazoline-based derivatives as VEGER-2 inhibitors: comparative study against EGFR kinase activity, induction of apoptosis, and molecular docking study” (RSC Advances, 2025).
Values joined by “and” are separate entries in the source; they are usually repeats but may differ in a detail not shown here. Equal entries are not always repeated.

Tests used:
[1] = tested on: HepG-2; assay: MTT anti-proliferative assay, HepG-2; format: cell-based, human; settings: Homo sapiens, HepG2
[2] = tested on: Bcl-2; assay: Bcl-2 gene expression in HepG-2 cells; format: cell-based, human
Experimental: (§1) All synthesized compounds were tested at their cytotoxic concentrations in HepG-2 cells for analysis of gene expression levels of apoptotic markers caspase-3, caspase-9, TNF-α, and IL-6 proteins, and only two active compounds were tested for BAX and Bcl-2 proteins.
(§2) through Flow cytometric analysis.
(§3) Pellets were collected again and incubated with
(§4) Total RNA from vehicle-treated
(§5) (Thermo Scientific, USA).
(§6) All experiments were performed in […]

[3] = tested on: caspase-3; assay: Caspase-3 expression level in HepG-2 cells; format: cell-based, human; settings: for Caspase-3 ± SE: HepG-2, at IC50 concentrations, control 0.460
Experimental: as §1, §2, §3, §4, §5, §6

[4] = tested on: TNF-alpha; assay: TNF-alpha level in HepG-2 cells; format: cell-based, human; settings: control 43.48
Experimental: as §1, §2, §3, §4, §5, §6

[5] = tested on: MCF-7; assay: MTT anti-proliferative assay, MCF-7; format: cell-based, human; settings: Homo sapiens, MCF7
[6] = tested on: HepG-2 cells; assay: Cell cycle analysis (PI staining, flow cytometry); format: cell-based, human
Experimental: In order to cause cytotoxicity, anticancer medicines must stop cell division at specific checkpoints, which are discrete stages of the cell cycle.
Propidium iodide (PI) staining and flow cytometry analysis[74,75] were used to analyze the cell cycle for derivatives 8a and 9a, as illustrated in the SI.
as §2, §3, §4, §5, §6

[7] = target: EGFR (Homo sapiens, UniProt P00533); assay: EGFR kinase inhibition assay (ELISA kit)
[8] = tested on: BAX; assay: BAX gene expression in HepG-2 cells; format: cell-based, human
Experimental: as §1, §2, §3, §4, §5, §6

[9] = tested on: caspase-9; assay: Caspase-9 expression level in HepG-2 cells; format: cell-based, human; settings: for Caspase-9 ± SE: HepG-2, at IC50 concentrations, control 11.01
Experimental: as §1, §2, §3, §4, §5, §6

[10] = tested on: BAX/Bcl-2; assay: BAX/Bcl-2 ratio in HepG-2 cells; format: cell-based, human; settings: control 0.1260
Experimental: as §1, §2, §3, §4, §5, §6

[11] = tested on: K-562; assay: MTT anti-proliferative assay, K-562; format: cell-based, human; settings: Homo sapiens, K562
[12] = target: VEGFR-2 (Homo sapiens, UniProt P35968); assay: In vitro VEGFR-2 inhibitory assay (ELISA kit); settings: VEGFR-2 kinase
[13] = tested on: IL-6R; assay: IL-6R level in HepG-2 cells; format: cell-based, human
Experimental: as §1, §2, §3, §4, §5, §6

Sequence of EGFR (P00533 25-1210): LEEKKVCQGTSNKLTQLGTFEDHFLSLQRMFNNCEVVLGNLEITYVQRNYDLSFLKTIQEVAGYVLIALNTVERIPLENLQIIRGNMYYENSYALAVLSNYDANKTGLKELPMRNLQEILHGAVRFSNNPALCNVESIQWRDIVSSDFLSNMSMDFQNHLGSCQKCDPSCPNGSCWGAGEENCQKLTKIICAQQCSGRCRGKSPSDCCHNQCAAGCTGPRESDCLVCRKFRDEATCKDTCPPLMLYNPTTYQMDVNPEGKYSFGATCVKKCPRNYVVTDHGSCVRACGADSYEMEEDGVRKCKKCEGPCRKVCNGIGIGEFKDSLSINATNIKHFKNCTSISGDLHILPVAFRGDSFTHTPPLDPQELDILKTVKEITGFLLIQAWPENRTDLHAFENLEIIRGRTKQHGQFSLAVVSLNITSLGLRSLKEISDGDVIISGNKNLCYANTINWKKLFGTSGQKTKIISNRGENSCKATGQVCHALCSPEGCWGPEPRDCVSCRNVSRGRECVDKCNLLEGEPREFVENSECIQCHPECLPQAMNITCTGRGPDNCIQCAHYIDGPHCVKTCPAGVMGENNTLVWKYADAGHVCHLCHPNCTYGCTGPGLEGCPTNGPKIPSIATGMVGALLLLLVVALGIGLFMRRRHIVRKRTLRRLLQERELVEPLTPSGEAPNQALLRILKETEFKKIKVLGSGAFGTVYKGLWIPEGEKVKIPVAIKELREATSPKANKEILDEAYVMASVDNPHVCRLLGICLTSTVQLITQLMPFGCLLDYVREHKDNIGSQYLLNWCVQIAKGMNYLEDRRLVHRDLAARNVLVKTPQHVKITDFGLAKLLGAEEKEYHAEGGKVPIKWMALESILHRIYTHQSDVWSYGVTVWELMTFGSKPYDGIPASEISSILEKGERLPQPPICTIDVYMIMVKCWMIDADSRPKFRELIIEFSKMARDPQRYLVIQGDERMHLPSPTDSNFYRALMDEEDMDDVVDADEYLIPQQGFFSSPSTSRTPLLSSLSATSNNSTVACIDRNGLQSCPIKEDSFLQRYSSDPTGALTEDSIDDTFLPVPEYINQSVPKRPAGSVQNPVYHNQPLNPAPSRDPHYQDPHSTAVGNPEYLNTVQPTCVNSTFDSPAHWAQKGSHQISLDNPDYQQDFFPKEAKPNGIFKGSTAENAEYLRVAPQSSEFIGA
Sequence of VEGFR-2 (P35968 20-1356): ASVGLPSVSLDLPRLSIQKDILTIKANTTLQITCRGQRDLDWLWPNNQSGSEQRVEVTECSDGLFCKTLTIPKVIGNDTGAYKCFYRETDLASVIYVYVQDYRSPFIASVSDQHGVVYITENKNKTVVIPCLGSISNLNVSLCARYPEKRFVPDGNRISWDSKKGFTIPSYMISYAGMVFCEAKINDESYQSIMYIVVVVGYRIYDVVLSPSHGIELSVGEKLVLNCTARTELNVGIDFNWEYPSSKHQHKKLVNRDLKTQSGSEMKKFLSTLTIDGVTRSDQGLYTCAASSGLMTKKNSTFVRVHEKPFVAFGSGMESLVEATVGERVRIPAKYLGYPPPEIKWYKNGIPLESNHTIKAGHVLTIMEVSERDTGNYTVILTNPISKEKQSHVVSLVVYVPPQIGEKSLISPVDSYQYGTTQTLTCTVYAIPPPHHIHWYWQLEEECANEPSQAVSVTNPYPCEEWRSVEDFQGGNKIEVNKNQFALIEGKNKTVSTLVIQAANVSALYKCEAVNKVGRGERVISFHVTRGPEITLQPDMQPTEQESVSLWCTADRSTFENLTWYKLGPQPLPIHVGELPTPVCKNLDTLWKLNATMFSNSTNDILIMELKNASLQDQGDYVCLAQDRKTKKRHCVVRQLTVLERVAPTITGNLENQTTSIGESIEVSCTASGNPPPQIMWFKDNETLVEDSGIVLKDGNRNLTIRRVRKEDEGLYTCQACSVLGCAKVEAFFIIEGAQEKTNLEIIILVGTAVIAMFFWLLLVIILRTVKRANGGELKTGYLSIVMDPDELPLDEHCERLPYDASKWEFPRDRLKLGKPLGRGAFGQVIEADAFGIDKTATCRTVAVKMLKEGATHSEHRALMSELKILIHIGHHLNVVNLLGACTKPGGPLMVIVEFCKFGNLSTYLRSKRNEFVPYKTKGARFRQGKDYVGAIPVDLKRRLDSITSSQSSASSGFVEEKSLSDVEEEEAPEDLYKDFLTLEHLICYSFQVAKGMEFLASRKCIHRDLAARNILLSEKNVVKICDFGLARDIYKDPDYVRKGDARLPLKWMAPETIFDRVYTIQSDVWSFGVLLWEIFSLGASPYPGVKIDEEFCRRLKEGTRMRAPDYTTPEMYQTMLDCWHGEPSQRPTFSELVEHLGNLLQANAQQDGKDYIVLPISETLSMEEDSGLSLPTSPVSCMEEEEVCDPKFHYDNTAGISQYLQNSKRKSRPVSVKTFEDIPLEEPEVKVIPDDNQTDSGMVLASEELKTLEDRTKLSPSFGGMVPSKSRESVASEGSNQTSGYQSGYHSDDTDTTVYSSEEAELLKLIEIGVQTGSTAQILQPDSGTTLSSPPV

With `O=C(Cn1cnc2cc(Cl)ccc2c1=O)Nc1ccccc1` [8a, 2-(7-Chloro-4-oxoquinazolin-3(4H)-yl)-N-phenylacetamide] the viability at 0.195 µg/mL ([1]; HepG-2, 0.195 ug/ml) was 45.9%, the cytotoxicity at 0.195 µg/mL ([1]; HepG-2, 0.195 ug/ml, read-out: Toxicity %) was 54.1% and the viability at 0.391 µg/mL ([1]; HepG-2, 0.391 ug/ml) was 26.4%. The cytotoxicity at 0.391 µg/mL ([1]; HepG-2, 0.391 ug/ml, read-out: Toxicity %) was 73.6%, the viability at 0.781 µg/mL ([1]; HepG-2, 0.781 ug/ml) was 16.7% and the cytotoxicity at 0.781 µg/mL ([1]; HepG-2, 0.781 ug/ml, read-out: Toxicity %) was 83.3%. It also gave a viability at 1.563 µg/mL ([1]; HepG-2, 1.563 ug/ml) of 11.8%, a cytotoxicity at 1.563 µg/mL ([1]; HepG-2, 1.563 ug/ml, read-out: Toxicity %) of 88.2% and a viability at 3.125 µg/mL ([1]; HepG-2, 3.125 ug/ml) of 8.68%. It also gave a cytotoxicity at 3.125 µg/mL ([1]; HepG-2, 3.125 ug/ml, read-out: Toxicity %) of 91.3%, a viability at 6.25 µg/mL ([1]; HepG-2, 6.25 ug/ml) of 7.88% and a cytotoxicity at 6.25 µg/mL ([1]; HepG-2, 6.25 ug/ml, read-out: Toxicity %) of 92.1%. The viability at 12.5 µg/mL ([1]; HepG-2, 12.5 ug/ml) was 6.74%, the cytotoxicity at 12.5 µg/mL ([1]; HepG-2, 12.5 ug/ml, read-out: Toxicity %) was 93.3% and the viability at 25 µg/mL ([1]; HepG-2, 25 ug/ml) was 5.9%. The cytotoxicity at 25 µg/mL ([1]; HepG-2, 25 ug/ml, read-out: Toxicity %) was 94.1%, the IC50 ([1]; MTT, HepG-2, read-out: Cytotoxicity against cancer cells IC50 HepG-2) was 187.1 ± 1.8 nM and the “fold reduction in Bcl-2 expression level” value ([2]; HepG-2, vs control) was 3.75 fold. For the same molecule, the “Gene expression (fold change) Bcl-2” value ([2]; HepG-2, control 3.4983) was 0.93 fold change and 0.9352 ± 0.09 fold change, the “Caspase-3 ± SE” value [3] was 1.52 ± 0.017 ng/mL and the “Caspase-3 ± SE” value ([3]; listed as R2) was 1.52 ng/mL. The “caspase-3 expression level, fold increase” value ([3]; HepG-2, vs control cells) was 3.30 fold, the “TNF-alpha ±SE” value ([4]; HepG-2, at IC50 concentrations) was 14.37 ± 0.45 ng/L and the “TNF-alpha ±SE” value ([4]; raw data, HepG2) was 23.6 ng/L. The viability at 0.195 µmol ([5]; MCF-7, 0.195 umol) was 93.5%, the cytotoxicity at 0.195 µmol ([5]; MCF-7, 0.195 umol, read-out: Toxicity %) was 6.51% and the viability at 0.391 µmol ([5]; MCF-7, 0.391 umol) was 67%. For the same molecule, the cytotoxicity at 0.391 µmol ([5]; MCF-7, 0.391 umol, read-out: Toxicity %) was 33%, the viability at 0.781 µmol ([5]; MCF-7, 0.781 umol) was 45.2% and the cytotoxicity at 0.781 µmol ([5]; MCF-7, 0.781 umol, read-out: Toxicity %) was 54.8%. The viability at 1.563 µmol ([5]; MCF-7, 1.563 umol) was 28.5%, the cytotoxicity at 1.563 µmol ([5]; MCF-7, 1.563 umol, read-out: Toxicity %) was 71.5% and the viability at 3.125 µmol ([5]; MCF-7, 3.125 umol) was 17.8%. It also gave a cytotoxicity at 3.125 µmol ([5]; MCF-7, 3.125 umol, read-out: Toxicity %) of 82.2%, a viability at 6.25 µmol ([5]; MCF-7, 6.25 umol) of 11.4% and a cytotoxicity at 6.25 µmol ([5]; MCF-7, 6.25 umol, read-out: Toxicity %) of 88.6%. For the same molecule, the viability at 12.5 µmol ([5]; MCF-7, 12.5 umol) was 8.31%, the cytotoxicity at 12.5 µmol ([5]; MCF-7, 12.5 umol, read-out: Toxicity %) was 91.7% and the viability at 25 µmol ([5]; MCF-7, 25 umol) was 7.26%. For the same molecule, the cytotoxicity at 25 µmol ([5]; MCF-7, 25 umol, read-out: Toxicity %) was 92.7%, the IC50 ([5]; MTT, MCF-7, read-out: Cytotoxicity against cancer cells IC50 MCF-7) was 695.5 ± 5.1 nM and the “% Sub-G1” value ([6]; HepG-2, cytotoxic concentration, 24 h, control 68.12) was 96.3% and 96.13%. The “% S” value ([6]; HepG-2, control 2.23) was 0.52%, the “% G2/M” value ([6]; HepG-2, control 6.52) was 0.16% and the “% G1” value ([6]; HepG-2, control 23.14) was 3.19%. The Activity % ([7]; HepG2) was 16.790%, the Inhibition % ([7]; HepG2) was 83.210% and the Activity % ([7]; K-562) was 33.902%. For the same molecule, the Inhibition % ([7]; K-562) was 66.098%, the Activity % ([7]; MCF7) was 20.242% and the Inhibition % ([7]; MCF7) was 79.758%. The “fold increase in BAX expression level” value ([8]; HepG-2, vs control) was 3.8 fold, the BAX expression level ([8]; HepG-2, control 0.44) was 1.67 fold change and the “Gene expression (fold change) BAX” value ([8]; HepG-2, control 0.4448) was 1.6792 ± 0.74 fold change. For the same molecule, the “Caspase-9 ± SE” value [9] was 74.01 ± 3.92 ng/L, the “Caspase-9 ± SE” value ([9]; listed as R2) was 74.01 ng/L and the “caspase-9 expression level, fold increase” value ([9]; HepG-2, vs control cells) was 6.72 fold. The “Gene expression (fold change) BAX/Bcl-2 ratio” value [10] was 1.77 and 1.7777 ± 0.11, the viability at 0.195 µmol ([11]; K-562, 0.195 umol) was 46.6% and the cytotoxicity at 0.195 µmol ([11]; K-562, 0.195 umol, read-out: Toxicity %) was 53.4%. It also gave a viability at 0.391 µmol ([11]; K-562, 0.391 umol) of 29.3%, a cytotoxicity at 0.391 µmol ([11]; K-562, 0.391 umol, read-out: Toxicity %) of 70.7% and a viability at 0.781 µmol ([11]; K-562, 0.781 umol) of 22%. It also gave a cytotoxicity at 0.781 µmol ([11]; K-562, 0.781 umol, read-out: Toxicity %) of 78%, a viability at 1.563 µmol ([11]; K-562, 1.563 umol) of 12.7% and a cytotoxicity at 1.563 µmol ([11]; K-562, 1.563 umol, read-out: Toxicity %) of 87.3%. For the same molecule, the viability at 3.125 µmol ([11]; K-562, 3.125 umol) was 8.29%, the cytotoxicity at 3.125 µmol ([11]; K-562, 3.125 umol, read-out: Toxicity %) was 91.7% and the viability at 6.25 µmol ([11]; K-562, 6.25 umol) was 7.18%. It also gave a cytotoxicity at 6.25 µmol ([11]; K-562, 6.25 umol, read-out: Toxicity %) of 92.8%, a viability at 12.5 µmol ([11]; K-562, 12.5 umol) of 6.03% and a cytotoxicity at 12.5 µmol ([11]; K-562, 12.5 umol, read-out: Toxicity %) of 94%. It also gave a viability at 25 µmol ([11]; K-562, 25 umol) of 5.54%, a cytotoxicity at 25 µmol ([11]; K-562, 25 umol, read-out: Toxicity %) of 94.5% and an IC50 ([11]; MTT, K-562, read-out: Cytotoxicity against cancer cells IC50 K-562) of 188.4 ± 1.7 nM. For the same molecule, the Activity % ([12]; HepG2) was 25.136%, the Inhibition % ([12]; HepG2) was 74.864% and the Activity % ([12]; K-562) was 37.495%. It also gave an Inhibition % ([12]; K-562) of 62.505%, an Activity % ([12]; MCF7) of 32.377% and an Inhibition % ([12]; MCF7) of 67.623%. For the same molecule, the “IL-6R ± SE” value ([13]; HepG-2, at IC50 concentrations, control 44.10) was 19.54 ± 1.62 ng/L, the IL-6R protein level ([13]; HepG-2, control 44.10%) was 19.54 ng/L and the “IL-6 ±SE” value ([13]; raw data, HepG2, control 44.10) was 26.0 ng/L.
